Data on one molecule can be found in PubChem BioAssay AID1671221.

The target in this experiment is Tyrosine-protein kinase Blk (Homo sapiens) (UniProt P51451). Briefly: BLK kinase inhibitors, dose response, biochemical, Z'-LYTE FRET, direct format, recombinant human (AID 1671221). Particulars: Z'-LYTE FRET peptide phosphorylation.
Tyrosine-protein kinase Blk (Homo sapiens), sequence (P51451 whole entry, looked up): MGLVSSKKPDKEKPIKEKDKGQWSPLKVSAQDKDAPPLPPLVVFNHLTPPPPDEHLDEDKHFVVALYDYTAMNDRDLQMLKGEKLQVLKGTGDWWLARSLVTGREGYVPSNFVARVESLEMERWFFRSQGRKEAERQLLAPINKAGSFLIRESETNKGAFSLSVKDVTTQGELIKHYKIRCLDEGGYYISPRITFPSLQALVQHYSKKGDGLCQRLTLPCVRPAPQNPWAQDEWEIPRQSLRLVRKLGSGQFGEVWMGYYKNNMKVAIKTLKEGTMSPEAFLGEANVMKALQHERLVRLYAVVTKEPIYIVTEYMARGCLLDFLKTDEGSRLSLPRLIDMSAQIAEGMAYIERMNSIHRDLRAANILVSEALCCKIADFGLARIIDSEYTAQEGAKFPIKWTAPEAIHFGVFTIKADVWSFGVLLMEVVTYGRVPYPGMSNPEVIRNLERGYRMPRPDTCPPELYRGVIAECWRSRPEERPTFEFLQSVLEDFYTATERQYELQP

What is called IC50 is the concentration that gives 50% inhibition. Take `COc1cc2ncnc(Nc3cccc(Cl)c3)c2cc1OC`: the IC50 is 1160 nM.
